From patent publication EP0734206B1, “SURFACTANTS PROVIDING ENHANCED EFFICACY AND/OR RAINFASTNESS TO PESTICIDE FORMULATIONS” (MONSANTO COMPANY, priority 1993, dated 1995)

What was measured:
[1] = test system: Panicum maximum (guineagrass, PANMA); test: greenhouse test of rainfastness of glyphosate formulations (Example 4); format: in vivo; settings: 1.68 kg a.e./ha, formulation 18.4% glyphosate a.e., 7% cocoamine quat 2EO, 10.2% nonionic surfactant
Method: (§1) Comparative herbicidal activity with and without simulated rain was determined in greenhouse and field tests. For greenhouse tests, seeds or propagules of selected species were planted in 10.2 cm square pots of soil with added fertilizer. Temperature and relative humidity were allowed to fluctuate within limits defined for each test described in the following Examples. Plants were allowed to grow until the desired growth stage or size (defined for each test) for spraying. Pots were selected for uniformity before treatment and three replicate pots were assigned to each treatment. Spray solutions were prepared by dilution or dissolution of concentrate herbicide formulations in water. When desired to test "tank mix" application of surfactant compositions, these were added to the spray solution at the required concentration. Spraying was performed with a device which simulates agricultural field spraying equipment, delivering a fine spray at a pressure of about 207 kilopascals. Speed of travel of the spray device over the plants was adjusted to give the desired spray volume (defined for each test). For logistical reasons, all three replicates of each treatment were sprayed together. "Rain" treatments were applied by repeated passage of a coarse spray of water over the plants at some desired period of time after herbicide spraying. The amount and duration of "rain" were noted. After spraying and "rain" treatment, the plants were returned to the greenhouse. Herbicidal efficacy was evaluated by visual assessment at one or more selected time periods after treatment and recorded as "percent control" on an arbitrary scale by comparison with untreated plants. On this scale 0 means no visible effect and 100 means death of all plants. In the Examples, percent control values given are the means of three replicates.
Aqueous concentrate formulations of the isopropylamine salt of glyphosate were prepared at a glyphosate a.e. loading of 18.4% (equivalent to about 200 g a.e./liter). All contained 7% cocoamine quat 2EO and 10.2% nonionic surfactant. Formulations of the present invention contained as the nonionic one of several secondary alcohol ethoxylates; other formulations were made containing nonionics such as Silwet L-77, 2,4,7,9-tetramethyl-5-decyne-4,7-diol 10EO, nonylphenol 8EO, 10EO and 12EO and C12-15 primary alcohol 7EO, 9EO and 12EO. These formulations were tested for rainfastness in a greenhouse test.
The test species was Panicum maximum (guineagrass, PANMA). All glyphosate formulations were applied at 1.68 kg a.e./ha (1.5 lb a.e./acre) in a spray volume of 185 l/ha (20 gallons/acre). Commercial Roundup herbicide was included as a standard. Simulated rain was applied in the amount of 6 mm over a period of 15 minutes, beginning 1 hour after glyphosate treatment.

[2] = test system: Elymus repens (quackgrass, AGRRE); test: greenhouse test of rainfastness of glyphosate formulations (Example 5); format: in vivo; settings: formulation 31% glyphosate a.e., 7.5% cocoamine quat 2EO, 8.6% nonionic surfactant
Method: as §1
Aqueous concentrate formulations of the isopropylamine salt of glyphosate were prepared at a glyphosate a.e. loading of 31% (equivalent to about 360 g a.e./liter). All contained 7.5% cocoamine quat 2EO and 8.6% nonionic surfactant. Formulations of the present invention contained as the nonionic C11-15 secondary alcohol 9EO or C12 branched secondary alcohol 10EO; for comparison, other formulations were made containing nonionics disclosed as rainfastness aids in the prior art such as 2,4,7,9-tetramethyl-5-decyne-4,7-diol 10EO or nonylphenol 8EO. These formulations were tested for rainfastness in a greenhouse test.
The test species was Elymus repens (quackgrass, AGRRE). All glyphosate formulations were applied at both 0.84 and 1.68 kg a.e./ha (0.75 and 1.5 lb a.e./acre) in a spray volume of 20 gallons/acre (187 l/ha. Commercial Roundup herbicide was included as a standard. Simulated rain was applied in the amount of 6 mm over a period of 15 minutes, beginning 1 hour after glyphosate treatment. Data on percent inhibition without and with "rain" are presented in Table 6. Table 6

barley cv. Pennco = test: short-term whole plant assay, barley regrowth after glyphosate treatment and trimming (Examples 7-8); format: in vivo; settings: T/Am 5 0, S/Al 9 0 % w/v, 7 days after treatment
Text: In Examples 7 and 8, a short-term whole plant assay was used to evaluate relative efficacy of aqueous glyphosate compositions containing tallowamine 5EO and C11-15 secondary alcohol 9EO in different concentrations and proportions relative to one another.
Equal volumes of uniformly sized seeds (20-25 in number) of barley cv. Pennco were sown in a growing medium consisting of a 3:2:1 sand/soil/peat mixture in 4 inch square plastic pots. Pots were placed in a controlled environment growth chamber providing a 14 hour photoperiod, day and night temperatures of 78°F and 66°F respectively, and a relative humidity in the range from 30% to 50%. Light was provided by a combination of metal halide and sodium vapor lamps. All pots were bottom watered at 1200 hr on the first day, resulting in rapid saturation of the growing medium. Seedling emergence occurred on the third and fourth days. On the seventh day, all pots were fertilized by bottom watering with a Peters 20-20-20 fertilizer containing 475 ppm soluble nitrogen.
On the eighth day, pots were sorted into 6 replicate blocks according to plant size. Treatments, including no-treatment controls, were randomly assigned within each block, one treatment per pot.
Plants were treated with glyphosate compositions in rapid succession between 0830 hr and 0900 hr on the ninth day, when average plant height was 13-15 cm and the second leaf was just beginning to elongate. Compositions were applied using a calibrated single-nozzle track sprayer delivering 187 l/ha through a Teejet 8001E nozzle at 276 kilopascals. Plants were removed from the growth chamber immediately before treatment and returned to the same growth chamber immediately after treatment. Pots were spatially arranged in a randomized complete block experimental design. At 6 hours after treatment plants in all pots were trimmed by cutting to 20 mm above the top edge of the pot. This removed approximately 90% of the barley leaf area. Pots were bottom watered once daily for the remainder of the study. Data collection took place on the sixteenth day, 7 days after treatment.
Average height of barley regrowth in each pot was measured to the nearest 5 mm increment, from the earlier cutting height 20 mm above the edge of the pot. All plants in each pot were then cut at 20 mm above the edge of the pot and total fresh weight was recorded.
All compositions in this Example contained glyphosate as the isopropylamine salt at a concentration calculated to deliver 0.42 kg a.e./ha. Polyoxyethylene tallowamine 5EO (T/Am 5) concentration was varied independently of C11-15 secondary alcohol 9EO (S/Al 9) concentration as will be clear from the tables below. […]

[3] = cloud point of aqueous concentrate glyphosate formulations (Examples 2 and 3); format: physicochemical; settings: 31% glyphosate a.e. as isopropylamine salt
Method: Aqueous concentrate formulations of the isopropylamine salt of glyphosate were prepared at a glyphosate a.e. loading of 31% (equivalent to about 360 g a.e./liter). All contained 3.5% cocoamine quat 2EO. Secondary alcohol ethoxylates of the invention were included at a range of levels and cloud point of the formulation was determined. To measure cloud point, a sample of each formulation in a test tube was heated in a water bath until it became cloudy. The test tube was then removed from the water bath and the sample stirred with a thermometer until it became clear. The temperature at which the sample became clear was recorded as the cloud point of the formulation.
Aqueous concentrate formulations of the isopropylamine salt of glyphosate were prepared at the same glyphosate a.e. loading as in Example 2, but containing higher levels of cocoamine quat 2EO. Secondary alcohol ethoxylates of the invention were included at a range of levels and cloud point of the formulation was determined by the same procedure as in Example 2.

[4] = Rain 6 mm over 15 minutes, 1 hour after treatment
[5] = 0.84 kg a.e./ha, Rain 6 mm over 15 minutes, 1 hour after treatment
[6] = 1.68 kg a.e./ha, Rain 6 mm over 15 minutes, 1 hour after treatment
[7] = averaged over glyphosate 0.07, 0.14 and 0.28 kg a.e./ha
[8] = 4% secondary alcohol, 3.5% cocoamine quat 2EO
[9] = 5% secondary alcohol, 3.5% cocoamine quat 2EO
[10] = 5% secondary alcohol, 5% cocoamine quat 2EO
[11] = 6% secondary alcohol, 3.5% cocoamine quat 2EO
[12] = 6% secondary alcohol, 5% cocoamine quat 2EO
[13] = 7% secondary alcohol, 3.5% cocoamine quat 2EO
[14] = 7% secondary alcohol, 5% cocoamine quat 2EO
[15] = 8% secondary alcohol, 5% cocoamine quat 2EO

Molecule | Percent inhibition of guineagrass 15 DAT ([1]; No rain) | Percent inhibition of guineagrass 15 DAT [1, 4] | Percent inhibition of quackgrass 28 DAT ([2]; 0.84 kg a.e./ha, No rain) | Percent inhibition of quackgrass 28 DAT [2, 5] | Percent inhibition of quackgrass 28 DAT ([2]; 1.68 kg a.e./ha, No rain) | Percent inhibition of quackgrass 28 DAT [2, 6] | further results
nonylphenol 8EO | 100% | 97% | 97% | 83% | 98% | 79% | 
nonylphenol 12EO | 100% | 63% |  |  |  |  | 
O=C(O)CNCP(=O)(O)O [glyphosate, N-phosphonomethylglycine] |  |  |  |  |  |  | Mean fresh weight of regrowth (barley cv. Pennco; [7]): 2.83 g; Mean height of regrowth (barley cv. Pennco; [7]): 171 mm; Mean fresh weight of regrowth (barley cv. Pennco; glyphosate 0.42 kg a.e./ha): 1.92 g; Mean height of regrowth (barley cv. Pennco; glyphosate 0.42 kg a.e./ha): 148 mm
nonylphenol 10EO | 100% | 81% |  |  |  |  | 
C12 branched secondary alcohol 6EO [C12 branched 6EO] | 100% | 66% |  |  |  |  | Cloud points [3, 8]: >95 °C; Cloud points [3, 9]: >95 °C; Cloud points [3, 10]: >95 °C; Cloud points [3, 11]: <25 °C; Cloud points [3, 12]: <25 °C; Cloud points [3, 13]: <25 °C; Cloud points [3, 14]: <25 °C; Cloud points [3, 15]: <25 °C
2,4,7,9-tetramethyl-5-decyne-4,7-diol 10EO [Adjuvant 2] | 98% | 94% | 94% | 78% | 98% | 94% | 
C12 branched secondary alcohol 10EO [C12 branched 10EO] | 100% | 98% | 94% | 84% | 100% | 88% | Cloud points [3, 8]: >95 °C; Cloud points [3, 9]: 80 °C; Cloud points [3, 10]: 80 °C; Cloud points [3, 11]: 72 °C; Cloud points [3, 12]: 68 °C; Cloud points [3, 13]: 65 °C; Cloud points [3, 14]: 65 °C; Cloud points [3, 15]: 61 °C
